Residues, ends and D or L forms follow the SMILES beside them.
Tests used:
6×His-IKKβ(1-669) EE = biological target: T1, 6×His-IKKβ(1-669) EE (Homo sapiens, UniProt O14920, S177E/S181E); test: MBP-pulldown of recombinant IKKβ by MBP-peptide fusions; format: binding; settings: 0.3 μM IKKβ, Western blot
T1 construct: a nearly full-length (residues 1-669) and constitutively active (S177E/S181E) mutant construct of human IKKβ; made in house; host or cells: Sf21 insect cells (baculovirus)
T1 sequence (O14920 1-669 S177E/S181E): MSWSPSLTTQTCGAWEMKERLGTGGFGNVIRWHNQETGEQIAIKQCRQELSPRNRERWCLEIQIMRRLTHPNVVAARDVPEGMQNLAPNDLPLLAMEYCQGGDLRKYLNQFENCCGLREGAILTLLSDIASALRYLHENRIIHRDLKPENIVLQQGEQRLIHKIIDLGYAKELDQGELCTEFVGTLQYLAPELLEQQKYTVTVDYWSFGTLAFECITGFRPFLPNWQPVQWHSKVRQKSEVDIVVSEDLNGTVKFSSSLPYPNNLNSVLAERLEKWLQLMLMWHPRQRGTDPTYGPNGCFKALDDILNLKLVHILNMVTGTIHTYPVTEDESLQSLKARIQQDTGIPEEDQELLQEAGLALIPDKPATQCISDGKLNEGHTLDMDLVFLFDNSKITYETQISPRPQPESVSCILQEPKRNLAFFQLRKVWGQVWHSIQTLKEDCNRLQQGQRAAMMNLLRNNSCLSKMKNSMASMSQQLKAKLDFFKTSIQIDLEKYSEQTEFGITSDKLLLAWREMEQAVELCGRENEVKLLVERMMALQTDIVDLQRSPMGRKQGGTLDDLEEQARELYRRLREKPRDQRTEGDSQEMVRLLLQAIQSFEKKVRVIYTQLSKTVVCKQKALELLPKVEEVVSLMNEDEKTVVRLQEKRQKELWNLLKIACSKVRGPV
Protocol: Experiments were performed in PD buffer (20 mM Tris pH 8.0, 150 mM NaCl, 2 mM DTT). For each experiment, 10 μl of amylose resin (dry bead volume) coupled to MBP-fusion constructs were incubated with […] of purified 6×His-IKKα(10-667) EE and 6×His-IKKβ (1-669) EE constructs adjusted at a concentration of 0.3 μM for 2 hours at 4° C. After two quick washing steps with PD buffer, complexes were eluted by incubation with 20 μl of the same buffer supplemented with 20 mM maltose for 15 minutes at 4° C. After mild centrifugation, supernatants were recovered and migrated onto two separate 10% SDS-PAGE gels. One gel was used for Western blot analysis to detect His-IKKα or His-IKKβ using and anti-6×His antibody (Sigma, #SAB4301134), the other for Coomassie staining to detect MBP-fusion proteins. Quantification of band intensity was done using the Image J software.

IKKα/β heterodimer = biological target: T2, IKKα/β heterodimer (Homo sapiens, UniProt O14920+O15111, S176E/S177E/S180E/S181E); test: MBP-pulldown of reconstituted IKKα/β heterodimer; format: binding
T2 construct: co-expression of 6×His-IKKβ(1-669) EE and Strep-IKKα(10-667) EE constructs in insect cells; Strep (followed by TEV site) (N); 6×His (followed by TEV site) (N); made in house; host or cells: Sf21 insect cells (co-infection with two baculoviruses)
T2 sequence (O15111 10-667 S176E/S180E): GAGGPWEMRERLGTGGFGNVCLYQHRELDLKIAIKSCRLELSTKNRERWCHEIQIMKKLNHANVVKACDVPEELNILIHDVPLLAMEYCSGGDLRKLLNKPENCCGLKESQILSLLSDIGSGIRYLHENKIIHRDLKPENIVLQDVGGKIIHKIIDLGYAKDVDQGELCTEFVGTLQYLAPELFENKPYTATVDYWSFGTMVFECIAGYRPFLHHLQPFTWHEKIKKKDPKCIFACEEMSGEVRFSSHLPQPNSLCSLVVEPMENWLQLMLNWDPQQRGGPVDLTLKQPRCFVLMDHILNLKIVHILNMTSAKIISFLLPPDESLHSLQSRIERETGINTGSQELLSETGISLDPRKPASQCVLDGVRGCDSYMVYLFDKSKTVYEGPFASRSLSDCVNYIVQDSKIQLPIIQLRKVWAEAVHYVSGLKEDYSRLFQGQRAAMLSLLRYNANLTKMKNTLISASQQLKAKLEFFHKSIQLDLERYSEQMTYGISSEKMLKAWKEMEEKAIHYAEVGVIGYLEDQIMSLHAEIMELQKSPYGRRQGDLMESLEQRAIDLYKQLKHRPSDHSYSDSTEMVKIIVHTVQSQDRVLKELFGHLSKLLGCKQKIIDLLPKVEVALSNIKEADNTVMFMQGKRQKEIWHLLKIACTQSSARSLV
T2 sequence (O14920 1-669 S177E/S181E): T1 sequence (O14920 1-669 S177E/S181E)
Protocol: IKKα/β heterodimer. SF21 cells expressing the Strep-IKKα(10-667) EE and 6×His-IKKβ(1-669) EE proteins were resuspended in lysis buffer (100 mM Tris-HCl pH 8.0, 150 mM NaCl, 10% glycerol, 2 mM DTT, 2 μg/ml DNaseI, 0.2 μg/ml RNAse, Roche Complete protease inhibitor cocktail) and lysed by mild sonication. Lysates were centrifuged at 14500 g for 45 minutes at 4° C. The supernatants were applied by gravity flow to Strep-Tactin XT 4F resin (IBA-lifesciences) pre-equilibrated in wash buffer (100 mM Tris-HCl pH 8, 150 mM NaCl, 10% glycerol, 1 mM EDTA, and 2 mM DTT). The resin was extensively washed with wash buffer and the proteins eluted with elution buffer (100 mM Tris-HCl pH 8, 150 mM NaCl, 10% glycerol, 2 mM DTT, and 50 mM biotin). The eluate was then applied to Ni^2+-NTA resin, which was washed and eluted as described above for the IKK homodimers. IKKα/β heterodimer samples were then concentrated and incubated in presence of 1 mM ATP plus additives (see above) for 1 hour on ice. Finally, samples were purified by gel filtration chromatography using a Superdex 200 10/30 column (GE Healthcare) pre-equilibrated in gel filtration buffer 1 (20 mM Tris-HCl PH 8.0, 150 mM NaCl, 5% Glycerol, 2 mM DTT).
Experiments were performed in PD buffer (20 mM Tris pH 8.0, 150 mM NaCl, 2 mM DTT). […] Quantification of band intensity was done using the Image J software. […]

| SMILES | interaction with IKKβ by pulldown (6×His-IKKβ(1-669) EE) | binding of IKKα/β heterodimer by pulldown (IKKα/β heterodimer) |
| --- | --- | --- |
| CC(C)C[C@H](NC(=O)[C@@H](NC(=O)[C@H](CC(C)C)NC(=O)[C@H](CCCNC(=N)N)NC(=O)[C@H](CCC(N)=O)NC(=O)CNC(=O)CNC(=O)[C@H](Cc1ccccc1)NC(=O)[C@@H](NC(=O)[C@H](CC(C)C)NC(=O)[C@H](CC(=O)O)NC(=O)[C@H](CC(=O)O)NC(=O)[C@H](Cc1ccc(O)cc1)NC(=O)[C@@H]1CCCN1C(=O)[C@H](CC(C)C)NC(=O)[C@H](CCC(=O)O)NC(=O)[C@H](CC(=O)O)NC(=O)[C@H](CCC(=O)O)NC(=O)[C@@H](NC(=O)[C@H](Cc1ccccc1)NC(=O)[C@@H](N)CCC(=O)O)[C@@H](C)O)C(C)C)[C@@H](C)O)C(=O)O [IkBα pep C308L] (H-EFTEDELPYDDLVFGGQRLTL-OH; N-terminus and C-terminus assumed) | clearly enhance binding to IKKβ | – |
| CC(C)C[C@H](NC(=O)[C@@H](NC(=O)[C@H](CC(C)C)NC(=O)[C@H](CCCNC(=N)N)NC(=O)[C@H](CCC(N)=O)NC(=O)CNC(=O)CNC(=O)[C@H](Cc1ccccc1)NC(=O)[C@@H](NC(=O)[C@H](CS)NC(=O)[C@H](CC(=O)O)NC(=O)[C@H](CC(=O)O)NC(=O)[C@H](Cc1ccc(O)cc1)NC(=O)[C@@H]1CCCN1C(=O)[C@H](CC(C)C)NC(=O)[C@H](CCC(=O)O)NC(=O)[C@H](CC(=O)O)NC(=O)[C@H](CCC(=O)O)NC(=O)[C@@H](NC(=O)[C@H](Cc1ccccc1)NC(=O)[C@@H](N)CCC(=O)O)[C@@H](C)O)C(C)C)[C@@H](C)O)C(=O)O [IκBα pep] (H-EFTEDELPYDDCVFGGQRLTL-OH; N-terminus and C-terminus assumed) | – | efficiently binds |
